Literature values as cited in patent US20230381309A1, “METHODS OF TREATING DIFFUSE LARGE B-CELL LYMPHOMA” (IMMUNOVACCINE TECHNOLOGIES INC., priority 2020, published 2023).
Where two headings read alike, the source gives them in different places.

Test system: relapsed/refractory DLBCL

Substance: nivolumab: PD1 antibody (Opdivo; Bristol-Myers Squibb)
- objective response rate (patients having failed autologous transplantation): 10%
- objective response rate (patients ineligible for autologous transplantation): 3%
